Measured values reported in article PMC11007962, “First-in-human study of GFH018, a small molecule inhibitor of transforming growth factor-β receptor I inhibitor, in patients with advanced solid tumors” (BMC Cancer, 2024).

Test system: patients with advanced solid tumors
[1] = 85 mg BID 14d-on/14d-off (N = 12)

Cc1cccc(-c2nn3c(c2-c2ccc4ncnn4c2/C=C/C(N)=O)CCC3)n1 [GFH018]
TRAE: LDH increased (85 mg BID 7d-on/7d-off (N = 6)): 0 n (%)
TRAE: Lymphocyte count decreased (85 mg BID 7d-on/7d-off (N = 6)): 2 (33.3%) n (%)
TRAE: Protein urine present (85 mg BID 7d-on/7d-off (N = 6)): 1 (16.7%) n (%)
TRAE: Proteinuria (85 mg BID 7d-on/7d-off (N = 6)): 0 n (%)
Treatment-emergent Proteinuria (grouped PTs), G1 (85 mg BID 7d-on/7d-off (N = 6)): 2 (33.3) n (%)
Treatment-emergent Proteinuria (grouped PTs), G2 (85 mg BID 7d-on/7d-off (N = 6)): 0 n (%)
Treatment-emergent Proteinuria (grouped PTs), G3 (85 mg BID 7d-on/7d-off (N = 6)): 0 n (%)
Treatment-emergent Proteinuria (grouped PTs: proteinuria and urine protein present), any grade (85 mg BID 7d-on/7d-off (N = 6)): 2 (33.3) n (%)
At least one TEAE [1]: 12 (100%) n (%)
At least one TEAE (Table S3) [1]: 12 (100%) n (%)
At least one TRAE [1]: 11 (91.7%) n (%)
TEAE: ALP increased [1]: 2 (16.7%) n (%)
TEAE: ALT increased [1]: 3 (25.0%) n (%)
TEAE: ALT increased, any grade (Table S3) [1]: 3 (25.0%) n (%)
TEAE: ALT increased, maximal CTCAE grade G1 [1]: 3 (25.0%) n (%)
TEAE: ALT increased, maximal CTCAE grade G2 [1]: 0 n (%)
TEAE: ALT increased, maximal CTCAE grade G3 [1]: 0 n (%)
TEAE: ALT increased, maximal CTCAE grade G4 [1]: 0 n (%)
TEAE: ALT increased, maximal CTCAE grade G5 [1]: 0 n (%)
TEAE: AST increased [1]: 4 (33.3%) n (%)
TEAE: AST increased, any grade (Table S3) [1]: 4 (33.3%) n (%)
TEAE: AST increased, maximal CTCAE grade G1 [1]: 3 (25.0%) n (%)
TEAE: AST increased, maximal CTCAE grade G2 [1]: 1 (8.3%) n (%)
TEAE: AST increased, maximal CTCAE grade G3 [1]: 0 n (%)
TEAE: AST increased, maximal CTCAE grade G4 [1]: 0 n (%)
TEAE: AST increased, maximal CTCAE grade G5 [1]: 0 n (%)
TEAE: Abdominal distention [1]: 2 (16.7%) n (%)
TEAE: Abdominal pain [1]: 4 (33.3%) n (%)
TEAE: Anemia [1]: 3 (25.0%) n (%)
TEAE: Asthenia [1]: 2 (16.7%) n (%)
TEAE: Bilirubin conjugated increased [1]: 3 (25.0%) n (%)
TEAE: Blood albumin decreased [1]: 1 (8.3%) n (%)
TEAE: Blood bilirubin increased [1]: 0 n (%)
TEAE: C-reactive protein increased [1]: 3 (25.0%) n (%)
TEAE: C-reactive protein increased, any grade (Table S3) [1]: 3 (25.0%) n (%)
TEAE: C-reactive protein increased, maximal CTCAE grade G1 [1]: 3 (25.0%) n (%)
TEAE: C-reactive protein increased, maximal CTCAE grade G2 [1]: 0 n (%)
TEAE: C-reactive protein increased, maximal CTCAE grade G3 [1]: 0 n (%)
TEAE: C-reactive protein increased, maximal CTCAE grade G4 [1]: 0 n (%)
TEAE: C-reactive protein increased, maximal CTCAE grade G5 [1]: 0 n (%)
TEAE: Constipation [1]: 2 (16.7%) n (%)
TEAE: Decreased appetite [1]: 0 n (%)
TEAE: Decreased appetite, any grade (Table S3) [1]: 0 n (%)
TEAE: Decreased appetite, maximal CTCAE grade G1 [1]: 0 n (%)
TEAE: Decreased appetite, maximal CTCAE grade G2 [1]: 0 n (%)
TEAE: Decreased appetite, maximal CTCAE grade G3 [1]: 0 n (%)
TEAE: Decreased appetite, maximal CTCAE grade G4 [1]: 0 n (%)
TEAE: Decreased appetite, maximal CTCAE grade G5 [1]: 0 n (%)
TEAE: GGT increased [1]: 4 (33.3%) n (%)
TEAE: GGT increased, any grade (Table S3) [1]: 4 (33.3%) n (%)
TEAE: GGT increased, maximal CTCAE grade G1 [1]: 3 (25.0%) n (%)
TEAE: GGT increased, maximal CTCAE grade G2 [1]: 1 (8.3%) n (%)
TEAE: GGT increased, maximal CTCAE grade G3 [1]: 0 n (%)
TEAE: GGT increased, maximal CTCAE grade G4 [1]: 0 n (%)
TEAE: GGT increased, maximal CTCAE grade G5 [1]: 0 n (%)
TEAE: Hypoalbuminemia [1]: 3 (25.0%) n (%)
TEAE: LDH increased [1]: 2 (16.7%) n (%)
TEAE: LDH increased, any grade (Table S3) [1]: 2 (16.7%) n (%)
TEAE: LDH increased, maximal CTCAE grade G1 [1]: 2 (16.7%) n (%)
TEAE: LDH increased, maximal CTCAE grade G2 [1]: 0 n (%)
TEAE: LDH increased, maximal CTCAE grade G3 [1]: 0 n (%)
TEAE: LDH increased, maximal CTCAE grade G4 [1]: 0 n (%)
TEAE: LDH increased, maximal CTCAE grade G5 [1]: 0 n (%)
TEAE: Lymphocyte count decreased [1]: 4 (33.3%) n (%)
TEAE: Platelet count decreased [1]: 1 (8.3%) n (%)
TEAE: Proteinuria [1]: 2 (16.7%) n (%)
TEAE: Sinus tachycardia [1]: 1 (8.3%) n (%)
TEAE: Urine protein present [1]: 1 (8.3%) n (%)
